In patent US10711004B2 (Genentech, Inc., priority 2018, dated 2020):
Like-named read-outs stand apart in the source and are kept apart here.

Target: human TRPA1 channel (Homo sapiens (Human), UniProt O75762)
Assay: hTRPA1 CHO Ca2+ FLIPR Tetra assay, block of cinnamaldehyde induced calcium influx
Format: cell-based
Details: CHO cells expressing TRPA1, Hill coefficient fixed to 1.5
In short: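 Calcium-dye-loaded TRPA1-expressing CHO cells in HBSS/20 mM HEPES pH 7.4, 0.02% BSA were preincubated with compound for 10 or 90 min at room temperature. Calcium influx evoked by roughly an EC50 concentration of cinnamaldehyde was then read on FLIPR Tetra; IC50 came from curve fits with a fixed Hill coefficient.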

[1] = read-out: hTRPA1 IC50 (10 min), compounds incubated 10 minutes at room temperature before cinnamaldehyde agonist
[2] = read-out: hTRPA1 IC50 (90 min), compounds incubated 90 minutes at room temperature before cinnamaldehyde agonist

human TRPA1 channel, sequence (O75762 whole entry): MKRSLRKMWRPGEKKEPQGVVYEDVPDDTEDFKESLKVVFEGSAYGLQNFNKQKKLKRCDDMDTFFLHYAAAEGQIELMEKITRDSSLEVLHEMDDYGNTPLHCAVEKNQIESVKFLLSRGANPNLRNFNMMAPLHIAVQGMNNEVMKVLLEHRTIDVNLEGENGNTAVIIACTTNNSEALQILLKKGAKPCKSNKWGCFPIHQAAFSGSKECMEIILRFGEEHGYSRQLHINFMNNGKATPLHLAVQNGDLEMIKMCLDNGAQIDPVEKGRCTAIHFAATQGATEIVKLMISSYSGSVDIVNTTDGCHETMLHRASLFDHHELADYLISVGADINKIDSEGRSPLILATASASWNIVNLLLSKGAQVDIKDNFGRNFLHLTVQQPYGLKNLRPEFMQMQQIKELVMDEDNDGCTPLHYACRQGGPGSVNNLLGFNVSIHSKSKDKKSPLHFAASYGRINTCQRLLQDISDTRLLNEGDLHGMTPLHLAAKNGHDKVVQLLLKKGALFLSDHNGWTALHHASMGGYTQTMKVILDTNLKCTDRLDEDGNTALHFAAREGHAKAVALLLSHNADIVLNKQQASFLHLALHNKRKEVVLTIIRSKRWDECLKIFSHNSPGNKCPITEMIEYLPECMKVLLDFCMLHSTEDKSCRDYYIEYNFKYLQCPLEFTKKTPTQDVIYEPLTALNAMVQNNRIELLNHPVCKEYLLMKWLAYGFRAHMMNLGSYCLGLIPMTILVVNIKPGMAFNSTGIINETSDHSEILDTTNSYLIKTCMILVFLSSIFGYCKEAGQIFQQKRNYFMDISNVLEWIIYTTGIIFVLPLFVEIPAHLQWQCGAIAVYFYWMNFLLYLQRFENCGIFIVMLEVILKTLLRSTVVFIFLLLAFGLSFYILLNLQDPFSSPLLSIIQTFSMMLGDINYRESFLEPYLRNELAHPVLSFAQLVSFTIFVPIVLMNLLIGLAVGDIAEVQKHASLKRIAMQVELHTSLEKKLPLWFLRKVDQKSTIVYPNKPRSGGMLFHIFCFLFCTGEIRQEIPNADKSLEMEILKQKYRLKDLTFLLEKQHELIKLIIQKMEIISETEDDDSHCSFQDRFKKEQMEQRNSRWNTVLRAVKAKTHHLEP

Row | Structure (SMILES) | IC50 [1] | IC50 [2] | IC50 (read-out: hTRPA1 IC50 (10 min), compounds incubated 10 minutes at room temperature before cinnamaldehyde agonist, listed as 254) | IC50 (read-out: hTRPA1 IC50 (90 min), compounds incubated 90 minutes at room temperature before cinnamaldehyde agonist, listed as 254)
1 | Cn1c(NCCO)nc2ncn(Cc3nc([C@H]4[C@@H]5C=C(c6ccccc6)C[C@@H]54)no3)c(=O)c21 [Example Compound 252, 8-(2-hydroxyethylamino)-7-methyl-1-[[3-[(1S,5S,6R)-3-phenyl-6-bicyclo[3.1.0]hex-2-enyl]-1,2,4-oxadiazol-5-yl]methyl]purin-6-one] | 0.304 µM | 0.068 µM |  | 
2 | Cc1cnn2ncn(Cc3nc([C@H]4C[C@](F)(c5cccc(Cl)c5)C4)no3)c(=O)c12 [Example Compound 253, 3-[[3-[trans-3-(3-chlorophenyl)-3-fluoro-cyclobutyl]-1,2,4-oxadiazol-5-yl]methyl]-5-methyl-pyrazolo[5,1-f][1,2,4]triazin-4-one] | 0.0435 µM | 0.031 µM |  | 
3 | Cn1cnc2ncn(Cc3nc([C@@H]4[C@H]5C=C(c6cccc(F)c6F)C[C@H]54)no3)c(=O)c21 [Example Compound 254, 7-methyl-1-[[3-[(1R,5R,6S)-3-(2,3-difluorophenyl)-6-bicyclo[3.1.0]hex-2-enyl]-1,2,4-oxadiazol-5-yl]methyl]purin-6-one] |  |  | 0.0123 µM | 0.0021 µM
4 | Cn1c(N)nc2ncn(Cc3nc([C@H]4[C@@H]5C=C(c6ccccc6)C[C@@H]54)no3)c(=O)c21 [Example Compound 255, 8-amino-7-methyl-1-[[3-[(1S,5S,6R)-3-phenyl-6-bicyclo[3.1.0]hex-2-enyl]-1,2,4-oxadiazol-5-yl]methyl]purin-6-one] | 0.0333 µM | 0.0038 µM |  | 
5 | Cn1cnc2ncn(Cc3nc([C@H]4[C@@H]5C=C(c6ccc(C#N)cc6)C[C@@H]54)no3)c(=O)c21 [Example Compound 256, 4-[(1S,5S,6R)-6-[5-[(7-methyl-6-oxo-purin-1-yl)methyl]-1,2,4-oxadiazol-3-yl]-3-bicyclo[3.1.0]hex-2-enyl]benzonitrile] | 0.0217 µM | 0.0066 µM |  | 
6 | Cn1cnc2ncn(Cc3nc([C@H]4C[C@H](Cc5cccc(Cl)c5)C4)no3)c(=O)c21 [Example Compound 257, 1-[[3-[trans-3-[(3-chlorophenyl)methyl]cyclobutyl]-1,2,4-oxadiazol-5-yl]methyl]-7-methyl-purin-6-one] | 0.0166 µM | 0.019 µM |  | 
7 | Cn1cnc2ncn(Cc3nc([C@H]4[C@@H]5CN(c6cc(F)c(C#N)c(F)c6)C[C@@H]54)no3)c(=O)c21 [Example Compound 258, 2,6-difluoro-4-[(1S,5R)-6-[5-[(7-methyl-6-oxo-purin-1-yl)methyl]-1,2,4-oxadiazol-3-yl]-3-azabicyclo[3.1.0]hexan-3-yl]benzonitrile] | 0.0782 µM | 0.018 µM |  | 
8 | Cn1cnc2nnn(Cc3nc([C@H]4[C@@H]5C=C(c6ccccc6)C[C@@H]54)no3)c(=O)c21 [Example Compound 259, 5-methyl-3-[[3-[(1S,5S,6R)-3-phenyl-6-bicyclo[3.1.0]hex-2-enyl]-1,2,4-oxadiazol-5-yl]methyl]imidazo[4,5-d]triazin-4-one] | 0.0251 µM | 0.016 µM |  | 
9 | COCCNc1nc2ncn(Cc3nc([C@@H]4[C@H]5C=C(c6ccccc6)C[C@H]54)no3)c(=O)c2n1C [Example Compound 260, 8-(2-methoxyethylamino)-7-methyl-1-[[3-[(1R,5R,6S)-3-phenyl-6-bicyclo[3.1.0]hex-2-enyl]-1,2,4-oxadiazol-5-yl]methyl]purin-6-one] | 0.0426 µM | 0.035 µM |  | 
10 | Nc1ccc2c(=O)n(Cc3nc([C@H]4[C@@H]5CN(c6cccc(F)c6)C[C@@H]54)no3)cnc2n1 [Example Compound 261, 7-amino-3-[[3-[(1R,5S)-3-(3-fluorophenyl)-3-azabicyclo[3.1.0]hexan-6-yl]-1,2,4-oxadiazol-5-yl]methyl]pyrido[2,3-d]pyrimidin-4-one] | 0.00973 µM | 0.0043 µM |  | 
11 | CNc1nc2ncn(Cc3nc([C@@H]4[C@H]5C=C(c6ccccc6)C[C@H]54)no3)c(=O)c2n1C [Example Compound 262, 7-methyl-8-(methylamino)-1-[[3-[(1R,5R,6S)-3-phenyl-6-bicyclo[3.1.0]hex-2-enyl]-1,2,4-oxadiazol-5-yl]methyl]purin-6-one] | 0.0335 µM | 0.014 µM |  | 
